Laboratory results taken from ChEMBL document CHEMBL4002643, “Tubulin-binding dibenz[c,e]oxepines: Part 2. Structural variation and biological evaluation as tumour vasculature disrupting agents” (Bioorg Med Chem, 2017).

Columns and labels:
[1] = Inhibition of tubulin (unknown origin) assembly preincubated for 30 mins followed by GTP addition by spectrophotometric method; set-up: species or system Homo sapiens
[2] = Inhibition of porcine tubulin assembly measured for 30 mins by UV/visible spectrophotometric method; set-up: species or system Sus scrofa
[3] = test system: K562; assay: Cytotoxicity against human K562 cells assessed as growth inhibition after 5 days by MTT assay; assay type: functional, cell-based; details: K562, 120 h
[4] = test system: CCRF-CEM; assay: Cytotoxicity against human CCRF-CEM cells assessed as growth inhibition after 48 hrs by SRB assay; assay type: functional
[5] = test system: HL-60(TB); assay: Cytotoxicity against human HL-60(TB) cells assessed as growth inhibition after 48 hrs by SRB assay; assay type: functional; details: HL-60, 48 h
[6] = test system: K562; assay: Cytotoxicity against human K562 cells assessed as growth inhibition after 48 hrs by SRB assay; assay type: functional; details: K562, 48 h
[7] = test system: MOLT-4; assay: Cytotoxicity against human MOLT4 cells assessed as growth inhibition after 48 hrs by SRB assay; assay type: functional; details: MOLT-4, 48 h
[8] = test system: RPMI-8226; assay: Cytotoxicity against human RPMI8226 cells assessed as growth inhibition after 48 hrs by SRB assay; assay type: functional; details: RPMI-8226, 48 h
[9] = test system: SR; assay: Cytotoxicity against human SR cells assessed as growth inhibition after 48 hrs by SRB assay; assay type: functional
[10] = test system: A549; assay: Cytotoxicity against human A549 cells assessed as growth inhibition after 48 hrs by SRB assay; assay type: functional; details: A549, 48 h
[11] = test system: EKVX; assay: Cytotoxicity against human EKVX cells assessed as growth inhibition after 48 hrs by SRB assay; assay type: functional
[12] = test system: HOP-62; assay: Cytotoxicity against human HOP62 cells assessed as growth inhibition after 48 hrs by SRB assay; assay type: functional; details: HOP-62, 48 h
[13] = test system: HOP-92; assay: Cytotoxicity against human HOP92 cells assessed as growth inhibition after 48 hrs by SRB assay; assay type: functional; details: HOP-92, 48 h
[14] = test system: NCI-H226; assay: Cytotoxicity against human NCI-H226 cells assessed as growth inhibition after 48 hrs by SRB assay; assay type: functional; details: NCI-H226, 48 h
[15] = test system: NCI-H23; assay: Cytotoxicity against human NCI-H23 cells assessed as growth inhibition after 48 hrs by SRB assay; assay type: functional; details: NCI-H23, 48 h
[16] = test system: NCI-H322M; assay: Cytotoxicity against human NCI-H322M cells assessed as growth inhibition after 48 hrs by SRB assay; assay type: functional
[17] = test system: NCI-H460; assay: Cytotoxicity against human NCI-H460 cells assessed as growth inhibition after 48 hrs by SRB assay; assay type: functional; details: NCI-H460, 48 h
[18] = test system: NCI-H522; assay: Cytotoxicity against human NCI-H522 cells assessed as growth inhibition after 48 hrs by SRB assay; assay type: functional; details: NCI-H522, 48 h
[19] = test system: COLO 205; assay: Cytotoxicity against human COLO205 cells assessed as growth inhibition after 48 hrs by SRB assay; assay type: functional; details: COLO 205, 48 h
[20] = test system: HCC 2998; assay: Cytotoxicity against human HCC2998 cells assessed as growth inhibition after 48 hrs by SRB assay; assay type: functional; details: HCC 2998, 48 h
[21] = test system: HCT-116; assay: Cytotoxicity against human HCT116 cells assessed as growth inhibition after 48 hrs by SRB assay; assay type: functional; details: HCT-116, 48 h
[22] = test system: HCT-15; assay: Cytotoxicity against human HCT15 cells assessed as growth inhibition after 48 hrs by SRB assay; assay type: functional; details: HCT-15, 48 h
[23] = test system: KM12; assay: Cytotoxicity against human KM12 cells assessed as growth inhibition after 48 hrs by SRB assay; assay type: functional; details: KM12, 48 h
[24] = test system: SW-620; assay: Cytotoxicity against human SW620 cells assessed as growth inhibition after 48 hrs by SRB assay; assay type: functional; details: SW-620, 48 h
[25] = test system: SF-268; assay: Cytotoxicity against human SF268 cells assessed as growth inhibition after 48 hrs by SRB assay; assay type: functional; details: SF-268, 48 h
[26] = test system: SF-295; assay: Cytotoxicity against human SF295 cells assessed as growth inhibition after 48 hrs by SRB assay; assay type: functional; details: SF-295, 48 h
[27] = test system: SF-539; assay: Cytotoxicity against human SF539 cells assessed as growth inhibition after 48 hrs by SRB assay; assay type: functional; details: SF-539, 48 h
[28] = test system: SNB-19; assay: Cytotoxicity against human SNB19 cells assessed as growth inhibition after 48 hrs by SRB assay; assay type: functional; details: SNB-19, 48 h
[29] = test system: SNB-75; assay: Cytotoxicity against human SNB75 cells assessed as growth inhibition after 48 hrs by SRB assay; assay type: functional; details: SNB-75, 48 h
[30] = test system: U-251; assay: Cytotoxicity against human U251 cells assessed as growth inhibition after 48 hrs by SRB assay; assay type: functional; details: U-251, 48 h
[31] = test system: LOX IMVI; assay: Cytotoxicity against human LOXIMVI cells assessed as growth inhibition after 48 hrs by SRB assay; assay type: functional
[32] = test system: M14; assay: Cytotoxicity against human M14 cells assessed as growth inhibition after 48 hrs by SRB assay; assay type: functional; details: M14, 48 h
[33] = test system: Malme-3M; assay: Cytotoxicity against human MALME-3M cells assessed as growth inhibition after 48 hrs by SRB assay; assay type: functional
[34] = test system: MDA-MB-435; assay: Cytotoxicity against human MDA-MB-435 cells assessed as growth inhibition after 48 hrs by SRB assay; assay type: functional; details: MDA-MB-435, 48 h
[35] = test system: SK-MEL-2; assay: Cytotoxicity against human SK-MEL-2 cells assessed as growth inhibition after 48 hrs by SRB assay; assay type: functional; details: SK-MEL-2, 48 h
[36] = test system: SK-MEL-5; assay: Cytotoxicity against human SK-MEL-5 cells assessed as growth inhibition after 48 hrs by SRB assay; assay type: functional; details: SK-MEL-5, 48 h
[37] = test system: UACC-257; assay: Cytotoxicity against human UACC257 cells assessed as growth inhibition after 48 hrs by SRB assay; assay type: functional; details: UACC-257, 48 h
[38] = test system: UACC-62; assay: Cytotoxicity against human UACC62 cells assessed as growth inhibition after 48 hrs by SRB assay; assay type: functional; details: UACC-62, 48 h
[39] = test system: IGROV-1; assay: Cytotoxicity against human IGROV1 cells assessed as growth inhibition after 48 hrs by SRB assay; assay type: functional; details: IGROV-1, 48 h
[40] = test system: NCI/ADR-RES; assay: Cytotoxicity against human NCI-ADR-RES cells assessed as growth inhibition after 48 hrs by SRB assay; assay type: functional
[41] = test system: OVCAR-3; assay: Cytotoxicity against human OVCAR3 cells assessed as growth inhibition after 48 hrs by SRB assay; assay type: functional; details: OVCAR-3, 48 h
[42] = test system: OVCAR-4; assay: Cytotoxicity against human OVCAR4 cells assessed as growth inhibition after 48 hrs by SRB assay; assay type: functional; details: OVCAR-4, 48 h
[43] = test system: OVCAR-8; assay: Cytotoxicity against human OVCAR8 cells assessed as growth inhibition after 48 hrs by SRB assay; assay type: functional; details: OVCAR-8, 48 h
[44] = test system: SK-OV-3; assay: Cytotoxicity against human SKOV3 cells assessed as growth inhibition after 48 hrs by SRB assay; assay type: functional; details: SK-OV-3, 48 h
[45] = test system: 786-0; assay: Cytotoxicity against human 786-0 cells assessed as growth inhibition after 48 hrs by SRB assay; assay type: functional; details: 786-0, 48 h
[46] = test system: A498; assay: Cytotoxicity against human A498 cells assessed as growth inhibition after 48 hrs by SRB assay; assay type: functional; details: A498, 48 h
[47] = test system: CAKI-1; assay: Cytotoxicity against human Caki1 cells assessed as growth inhibition after 48 hrs by SRB assay; assay type: functional; details: CAKI-1, 48 h
[48] = test system: RXF 393; assay: Cytotoxicity against human RXF393 cells assessed as growth inhibition after 48 hrs by SRB assay; assay type: functional; details: RXF 393, 48 h
[49] = test system: SN12C; assay: Cytotoxicity against human SN12C cells assessed as growth inhibition after 48 hrs by SRB assay; assay type: functional
[50] = test system: TK-10; assay: Cytotoxicity against human TK10 cells assessed as growth inhibition after 48 hrs by SRB assay; assay type: functional; details: TK-10, 48 h
[51] = test system: UO-31; assay: Cytotoxicity against human UO31 cells assessed as growth inhibition after 48 hrs by SRB assay; assay type: functional; details: UO-31, 48 h
[52] = test system: DU-145; assay: Cytotoxicity against human DU145 cells assessed as growth inhibition after 48 hrs by SRB assay; assay type: functional; details: DU-145, 48 h
[53] = test system: PC-3; assay: Cytotoxicity against human PC3 cells assessed as growth inhibition after 48 hrs by SRB assay; assay type: functional; details: PC-3, 48 h
[54] = test system: BT-549; assay: Cytotoxicity against human BT549 cells assessed as growth inhibition after 48 hrs by SRB assay; assay type: functional; details: BT-549, 48 h
[55] = test system: Hs-578T; assay: Cytotoxicity against human Hs 578T cells assessed as growth inhibition after 48 hrs by SRB assay; assay type: functional
[56] = test system: MCF7; assay: Cytotoxicity against human MCF7 cells assessed as growth inhibition after 48 hrs by SRB assay; assay type: functional; details: MCF7, 48 h
[57] = test system: MDA-MB-231; assay: Cytotoxicity against human MDA-MB-231 cells assessed as growth inhibition after 48 hrs by SRB assay; assay type: functional; details: MDA-MB-231, 48 h
[58] = test system: MDA-MB-468; assay: Cytotoxicity against human MDA-MB-468 cells assessed as growth inhibition after 48 hrs by SRB assay; assay type: functional; details: MDA-MB-468, 48 h
[59] = test system: T47D; assay: Cytotoxicity against human T47D cells assessed as growth inhibition after 48 hrs by SRB assay; assay type: functional

COc1ccc2c(c1)[C@@H](NC(C)=O)CCc1cc(OC)c(OC)c(OC)c1-2
IC50 [1]: 700 nM

COc1ccc(/C=C\c2cc(OC)c(OC)c(OC)c2)cc1OP(=O)(O)O [FOSBRETABULIN DISODIUM]
IC50 [2]: 0.9 µM
IC50 [3]: 0.72 µM

COc1cc2c(c(OC)c1OC)-c1ccc([N+](=O)[O-])cc1COC2
IC50 [2]: > 10 µM
IC50 [3]: 16 µM

COc1cc2c(c(OC)c1OC)-c1cc3c(cc1COC2)OCO3
IC50 [2]: > 10 µM
IC50 [3]: 85 µM
GI50 [4]: 350 nM
GI50 [5]: 390 nM
GI50 [6]: 210 nM
GI50 [7]: 470 nM
GI50 [8]: 500 nM
GI50 [9]: 170 nM
GI50 [10]: 440 nM
GI50 [11]: 780 nM
GI50 [12]: 690 nM
GI50 [13]: 7.08 µM
GI50 [14]: 2750 nM
GI50 [15]: 790 nM
GI50 [16]: 2000 nM
GI50 [17]: 380 nM
GI50 [18]: 390 nM
GI50 [19]: 340 nM
GI50 [20]: 490 nM
GI50 [21]: 370 nM
GI50 [22]: 480 nM
GI50 [23]: 360 nM
GI50 [24]: 400 nM
GI50 [25]: 1320 nM
GI50 [26]: 330 nM
GI50 [27]: 350 nM
GI50 [28]: 680 nM
GI50 [29]: 460 nM
GI50 [30]: 480 nM
GI50 [31]: 870 nM
GI50 [32]: 230 nM
GI50 [33]: > 100 µM
GI50 [34]: 50 nM
GI50 [35]: 560 nM
GI50 [36]: 210 nM
GI50 [37]: 3.39 µM
GI50 [38]: 790 nM
GI50 [39]: 950 nM
GI50 [40]: 360 nM
GI50 [41]: 250 nM
GI50 [42]: 2190 nM
GI50 [43]: 520 nM
GI50 [44]: 470 nM
GI50 [45]: 500 nM
GI50 [46]: 450 nM
GI50 [47]: 56.2 µM
GI50 [48]: 200 nM
GI50 [49]: 1050 nM
GI50 [50]: 5.13 µM
GI50 [51]: 3.98 µM
GI50 [52]: 370 nM
GI50 [53]: 540 nM
GI50 [54]: 540 nM
GI50 [55]: 430 nM
GI50 [56]: 400 nM
GI50 [57]: 1200 nM
GI50 [58]: 170 nM
GI50 [59]: 25.7 µM
